Experimental data as given in the NIST ThermoML archive (doi:10.1016/j.jct.2012.11.014).

Assay: xn = mol fraction of the nth substance listed
Conditions: 101 kPa, Liquid; for speed of sound: Frequency=2 MHz, Linear variable-path acoustic interferometer; for viscosity: Oscillating disk viscometry; for mass density: Vibrating tube method

C[NH+](C)C.O=P([O-])(O)O [trimethylammonium dihydrogen phosphate] + C[S+](C)[O-]
Conditions	mass density [kg/m3]	speed of sound [m/s]	viscosity [mPa·s]
298.15 K, x1 = 0.0264	1101.75	1494	2.17
298.15 K, x1 = 0.0397	1104.69	1493	2.25
298.15 K, x1 = 0.0708	1111.45	1492	2.45
298.15 K, x1 = 0.1172	1121.12	1494	2.74
298.15 K, x1 = 0.1673	1130.48	1496	3.05
298.15 K, x1 = 0.2284	1141.05	1502	3.41
298.15 K, x1 = 0.2934	1153.02	1510	3.79
298.15 K, x1 = 0.3413	1160.74	1518	4.07
298.15 K, x1 = 0.4012	1172.7	1527	4.41
298.15 K, x1 = 0.4659	1185.32	1540	4.77
298.15 K, x1 = 0.5306	1199.2	1554	5.12
298.15 K, x1 = 0.6022	1215.92	1570	5.51
298.15 K, x1 = 0.6728	1235.08	1587	5.89
298.15 K, x1 = 0.7504	1257.14	1608	6.3
298.15 K, x1 = 0.8137	1278.01	1624	6.64
298.15 K, x1 = 0.8805	1302.18	1641	6.99
298.15 K, x1 = 0.9643	1337.27	1662	7.45
298.15 K, x1 = 0.9858	1347.05	1668	7.56
298.15 K, x1 = 1	1353.61	1672	7.64
303.15 K, x1 = 0.0264	1099.07	1471	1.95
303.15 K, x1 = 0.0397	1102.31	1471	2.02
303.15 K, x1 = 0.0708	1109.32	1471	2.18
303.15 K, x1 = 0.1172	1119.09	1474	2.43
303.15 K, x1 = 0.1673	1128.56	1477	2.69
303.15 K, x1 = 0.2284	1139.84	1483	2.99
303.15 K, x1 = 0.2934	1151.1	1491	3.31
303.15 K, x1 = 0.3413	1160.68	1499	3.53
303.15 K, x1 = 0.4012	1171.28	1510	3.81
303.15 K, x1 = 0.4659	1184.46	1523	4.11
303.15 K, x1 = 0.5306	1198.94	1537	4.4
303.15 K, x1 = 0.6022	1214.84	1554	4.72
303.15 K, x1 = 0.6728	1233.24	1572	5.02
303.15 K, x1 = 0.7504	1256.51	1592	5.36
303.15 K, x1 = 0.8137	1276.03	1610	5.64
303.15 K, x1 = 0.8805	1302.06	1627	5.93
303.15 K, x1 = 0.9643	1336.07	1649	6.3
303.15 K, x1 = 0.9858	1344.82	1656	6.4
303.15 K, x1 = 1	1350.62	1660	6.46
308.15 K, x1 = 0.0264	1093.45	1459	1.78
308.15 K, x1 = 0.0397	1096.91	1460	1.83
308.15 K, x1 = 0.0708	1104.49	1461	1.97
308.15 K, x1 = 0.1172	1114.06	1464	2.18
308.15 K, x1 = 0.1673	1124.47	1468	2.41
308.15 K, x1 = 0.2284	1136.12	1475	2.67
308.15 K, x1 = 0.2934	1147.36	1485	2.94
308.15 K, x1 = 0.3413	1157.63	1492	3.13
308.15 K, x1 = 0.4012	1167.76	1504	3.37
308.15 K, x1 = 0.4659	1181.31	1518	3.62
308.15 K, x1 = 0.5306	1196.24	1531	3.86
308.15 K, x1 = 0.6022	1214.48	1548	4.13
308.15 K, x1 = 0.6728	1232.06	1567	4.38
308.15 K, x1 = 0.7504	1256.27	1588	4.67
308.15 K, x1 = 0.8137	1276.94	1605	4.91
308.15 K, x1 = 0.8805	1301.06	1625	5.16
308.15 K, x1 = 0.9643	1334.09	1649	5.47
308.15 K, x1 = 0.9858	1342.26	1656	5.56
308.15 K, x1 = 1	1347.59	1661	5.61
313.15 K, x1 = 0.0264	1089.15	1442	1.65
313.15 K, x1 = 0.0397	1092.77	1443	1.7
313.15 K, x1 = 0.0708	1100.69	1444	1.83
313.15 K, x1 = 0.1172	1109.86	1449	2.02
313.15 K, x1 = 0.1673	1121.53	1452	2.22
313.15 K, x1 = 0.2284	1134.54	1460	2.45
313.15 K, x1 = 0.2934	1145.27	1471	2.69
313.15 K, x1 = 0.3413	1156.54	1479	2.86
313.15 K, x1 = 0.4012	1167.52	1493	3.07
313.15 K, x1 = 0.4659	1181.73	1507	3.3
313.15 K, x1 = 0.5306	1196.14	1522	3.51
313.15 K, x1 = 0.6022	1214.06	1540	3.75
313.15 K, x1 = 0.6728	1232.95	1560	3.98
313.15 K, x1 = 0.7504	1256.04	1581	4.24
313.15 K, x1 = 0.8137	1276.61	1601	4.44
313.15 K, x1 = 0.8805	1299.14	1623	4.67
313.15 K, x1 = 0.9643	1331.48	1651.4	4.95
313.15 K, x1 = 0.9858	1339.35	1659	5.02
313.15 K, x1 = 1	1344.52	1664	5.07
